How the values were obtained:
[1] = pH of oral gel phase batches, original and diluted; assay type: physicochemical; conditions: original gel phase batch with the named active
[2] = Clarity of oral gel phase batches: absorbance at 610 nm (Lambda 25 UV/VIS), original and diluted; assay type: physicochemical; conditions: for Absorbance: 610 nm
Method: The clarity of samples with different actives is compared, and the precipitation characteristic of ZLC gel phase by dilution is evaluated. […] Zinc ion concentration in the following batches are all prepared at 0.5% (w/w) zinc level.
Lambda 25 UV/VIS Spectrometer (PerkinElmer) is used to obtain absorbance information for all samples in order to compare the clarity of gel phase between different actives. Absorbance is a logarithmic measure of the amount of light that is absorbed when passing through a substance. Since the particles in the gel absorb light, the more particles existing in solution, the more light absorbed by the gel. Thus, a small number of absorbance of a gel indicates a higher clarity. The absorbance is corrected by using deionized (DI) water as the blank solution under the light source wavelength of 610 nm.

[3] = Turbidity (percent transmission, TurbiScan) of mouthwash batches, original and diluted; assay type: physicochemical; conditions: zinc 1.01 wt %
Method: Four 500 g mouthwash batches which contain NaF, ZLC, ZnCl2 and ZnO as active ingredient are formulated with the ingredients shown in Table 1. The objective of this study is to compare the clarity of samples with different actives. Turbidity is evaluated by the percent transmission of light through the solution as measured by a TurbiScan® dispersion stability analyzer. The higher the percent transmission, the more transparent the composition. […] The concentration of zinc ions in ZLC solution is 25300 ppm obtained by ICP (Inductively Coupled Plasma) analysis, which corresponds to approximately 17% weight of ZLC actives in the solution. Zinc ion concentration in all batches is controlled to same level, i.e., 1.01 wt %. Among the four batches, the one that has ZnO as active appears milk white, with 0% transmission, while the other three samples are as clear as the deionized water (Table 2).
All original mouthwash batches are diluted into 2 fold, 4 fold, 8 fold, 16 fold and 32 fold. Turbidity measurements are performed after all solutions are prepared and well shaken. The turbidity data of the samples are shown in Table 3, 4, 5 and 6, for the dilutions of mouthwash containing NaF, ZLC, ZnCl2 and ZnO respectively.

[4] = Deposition/occlusion assay on dentine slices, confocal imaging; set-up: species or system human
Method: The deposition/occlusion assay is conducted using human dentine slices and the neat solution of Example 5. The dentine slices were prepared by cutting human tooth into thin dentine sections of about 800 microns in thickness, choosing a test side, sanding said test side using a sandpaper of about 600 grit, polishing said test side using a Buehler polishing cloth and 5 micron Buehler aluminum oxide, acid-etching said dentine section in 1% (by weight) citric acid solution for about 20 seconds, sonicating said dentine section for 10 minutes, and storing said dentine section in phosphate buffered saline (PBS, pH 7.4).
For treatment, the neat solution is diluted 16-fold with water, yielding a treatment solution with initial zinc concentration of about 0.149% by weight. The dentine section is immersed in the treatment solution for 1 hour at 37° C. The treated dentine section is then removed from the treatment solution, and rinsed 4 times, each time with 1 mL of PBS. The dentine section is then dried using a paper-based tissue and examined under confocal microscope in both XYZ and XYZ modes. Subsequent treatments are conducted in the same manner.
Dentine sections, as prepared in Example 6, are repeatedly treated with ZLC dilutions with initial zinc concentration of 0.0747% by weight. […] The dentine section is examined under the confocal microscope after each treatment.

[5] = pH of ZLC neat solution and final diluted samples; assay type: physicochemical; conditions: neat solution, zinc 2.39% by weight
Method: (§1) A neat solution of ZLC is prepared by 1), reacting 0.5 mole of ZnO powder with 1 mole of lysine HCl in 1 liter of water at room temperature for about 2 hours, and 2) collecting the supernatant through centrifugation followed by filtration using a 0.45 micron membrane. The neat solution has a zinc concentration of 2.39% by weight, and a pH of about 7.03.
(§2) Dilution experiment is conducted by mixing the neat solution with deionized water. The neat solution is diluted by 2×, 4×, 6×, 7×, 8×, 10×, 12×, 16×, 20×, 24×, 28×, and 32×, corresponding to initial zinc concentrations of 1.20%, 0.598%, 0.398%, 0.341%, 0.299%, 0.239%, 0.199%, 0.149%, 0.120%, 0.0996%, 0.0854%, 0.0747%, by weight, respectively. The diluted samples are kept at 37° C., and the rates at which flocculation/precipitation occurred are monitored.
pH values of final diluted samples are suitable for oral care applications. […] These pH values were well within the range of 5.5 to 10, which defines the suitable range for oral care formulations.

[6] = Dilution experiment of ZLC neat solution: visible flocculation/precipitation at 37° C.; assay type: physicochemical
Method: Various dilutions of ZLC are prepared to evaluate its efficiency in producing visible precipitates and/or flocculation, which can be delivered in situ onto an oral surface or into a dental opening, such as open tubules.
as §1, §2

[7] = gel phase batch, 2 fold dilution
[8] = gel phase batch, 4 fold dilution
[9] = gel phase batch, 8 fold dilution
[10] = gel phase batch, 16 fold dilution
[11] = gel phase batch, 32 fold dilution
[12] = original gel phase batch with the named active, DI water blank, 0.5% (w/w) zinc
[13] = original gel phase batch with the named active
[14] = initial zinc 0.0747% (32-fold dilution), 10 minutes at 37° C. each
[15] = neat solution diluted 16-fold, zinc about 0.149%, 1 hour at 37° C. each

Row | Compound | pH [1] | Absorbance [2, 7] | Absorbance [2, 8] | Absorbance [2, 9] | Absorbance [2, 10] | Absorbance [2, 11] | Absorbance [2, 12] | Appearance / dissolution of active in gel phase [2, 13] | also measured
1 | [F-].[Na+] [NaF, Sodium Fluoride] | 7.63 | 0.0106 | 0.0104 | 0.0107 | 0.0075 | 0.0137 | 0.0344 | – | –
2 | [Cl-].[Cl-].[Zn+2] [ZnCl2] | 5.25 | 0.7315 | 0.3700 | 0.1701 | 0.0570 | 0.0280 | 0.9204 | cloudy | –
3 | [O]=[Zn] [ZnO] | 8.30 | 2.4630 | 2.5340 | 2.1883 | 1.8638 | 1.0492 | 2.4626 | not dissolved | Appearance / clarity of mouthwash batch ([3]; original mouthwash batch with the named active): milk white; Turbidity (% Transmission) ([3]; original mouthwash batch, undiluted): 0%
4 | [Zn(C6H14N2O2)2Cl]^+Cl^− [ZLC] | 7.37 | – | – | 0.1860 | 0.1336 | – | 0.1765 | homogenous solution | Deposition by confocal imaging after 4 consecutive treatments [4, 14]: significant surface deposition; Deposition/occlusion by confocal imaging after 12 consecutive treatments [4, 14]: complete surface coverage; Visible precipitation during treatment ([4]; initial zinc 0.0747%, 10 minutes at 37° C.): no precipitation is observed by naked eyes; Deposition/occlusion by confocal imaging, first treatment ([4]; neat solution diluted 16-fold, zinc about 0.149%, 1 hour at 37° C.): noticeable deposition; Deposition/occlusion by confocal imaging, second treatment [4, 15]: complete surface coverage, including blocking of substantially all tubule openings; Deposition/occlusion by confocal imaging, third treatment [4, 15]: complete surface coverage and complete blocking of tubule openings; Thickness of surface deposits, second treatment [4, 15]: ≥ 10 microns; Thickness of surface deposits, third treatment [4, 15]: ≥ 25 microns; pH [5]: about 7.03; Flocculation observation two hours after mixing ([6]; additional sample with initial zinc concentration 0.299%): presence of flocculation; Flocculation/precipitation observation after a total of 19 hours ([6]; all samples except initial zinc concentration 1.20%): flocculation and/or precipitation can be observed; Time to some visible flocculation after mixing stock solution with water ([6]; dilutions with initial zinc concentrations 0.149% and 0.199%): ≤ 30 min; Flocculation observation one and a half hours after mixing ([6]; dilutions with initial zinc concentrations between 0.0747% and 0.239%): visible flocculation; Flocculation observation one hour from mixing ([6]; dilutions with initial zinc concentrations between 0.0854% and 0.239%): visible flocculation; Relative amount of precipitate after a total of 19 hours ([6]; initial zinc concentrations between 0.0747% and 0.239%): the most precipitates

From US9980890B2, “Zinc amino acid halide mouthwashes” (Colgate-Palmolive Company, priority 2012, dated 2018)
